≈ marks a conversion by molar mass, not a printed value. Where two headings read alike, the source gives them in different places. Non-standard residues stand in square brackets, D forms with d. Residues, ends and D or L forms follow the SMILES beside them. d1Nal = N[C@H](Cc1cccc2ccccc12)C(=O)O
What was measured:
[1] = tested on: albino hairless guinea pigs Crl:IAF(HA)-hrBR (Outbred); test: Photosafety study: primary irritancy, phototoxicity, contact hypersensitivity, photoallergy; assay type: in vivo, guinea pig; settings: single topical administration and UVR; XMP.629 up to 10 mg/mL (1.0%)
Protocol: XMP.629 was evaluated for photoallergic potential administered topically to hairless guinea pigs. Primary irritancy, phototoxicity (photoirritancy) and contact hypersensitivity were also evaluated in these studies.
Male CrI:IaF(HA)-hrBR (Outbred) albino hairless guinea pigs were assigned to 7 groups, five guinea pigs per group as outlined below.
XMP.629 was formulated as a gel. The phototoxicity comparator article was 8-methoxypsoralen (8-MOP) in methanol at concentrations of 0.1, 0.3 and 1.0 mg/mL. The contact hypersensitivity and photoallergy comparator article was 3,3′,4′,5′-tetrachlorosalicy/anilide (TCSA) in acetone:corn oil (4:1, v/v) at challenge concentrations of 0 (Vehicle), 10, and 30 mg/mL. The reagent and reagent vehicle were Freund's complete adjuvant (FCA) and sterile water for injection, USP, respectively.
The formulation administration and ultraviolet radiation (UVR) exposure regimens for each group in the study were as follows.
For all phases of the study, test articles, test article vehicles, comparator articles and comparator article vehicles were administered (0.3 ml) using a Hilltop chamber affixed to the guinea pig with dental dam overlaid with a Velcro® wrap for approximately 2.0 hours per administration.
Primary irritancy potential of the test articles and test article vehicles was evaluated in Group 1 guinea pigs. Three chambers (one per formulation dosage) were attached to the dorsal skin along the midline. After the administration period the chamber patches were removed and the application sites were gently wiped.
Cutaneous phototoxicity potential of the test articles and test article vehicles was evaluated in Group 2 guinea pigs. Group 3 guinea pigs were used as a comparator group with elicitation of phototoxicity with 8-MOP. Three chambers (one per formulation dosage) were attached to the dorsal skin along the midline and occluded. After the administration period the chamber patches were removed and the application sites were gently wiped. After wiping, Group 2 and 3 guinea pigs were exposed to solar-simulated UVR for approximately 2.25 hours.
For induction of contact hypersensitivity and photoallergy, a nuchal area of skin approximately 2.5 cm^2 was defined by intradermal injections with a formulation of sterile water and FCA in guinea pigs in Groups 4 through 7 under isoflurane/oxygen anesthesia. This skin area was then tape stripped five times. Formulations were topically administered via chambers as described in the study design table using one chamber attached to the nuchal area. After removal of the chambers the application sites were gently wiped and the nuchal site of Group 6 and 7 guinea pigs was exposed to UVR as above. Appropriate procedures for guinea pigs (with the exception of injection with FCA) were repeated once daily on Days 3, 5, 8, 10 and 12 of the induction phase.
On Day 22 (contact hypersensitivity and photoallergy challenge), formulations were topically applied to appropriate sites on guinea pigs in Groups 4 through 7 as described above. Three chambers (one per formulation dosage) were attached to the dorsal skin along the midline and occluded. The chambers were then removed and the application sites were gently wiped. Guinea pigs in Groups 6 and 7 were then exposed to UVR as above.
Observations for general appearance and clinical signs were made weekly throughout the study. […] Body weights were recorded at initiation of dosing for each phase, weekly thereafter and at sacrifice. […]

[2] = tested on: E. coli; settings: for MBC: agent alone
[3] = tested on: Staphylococcus aureus; settings: for MBC: agent alone
[4] = tested on: P. acnes; test: microbe, parasite or virus in culture; settings: Cutibacterium acnes
Protocol: An in vitro assessment of antibiotic activity in XMP.629 and various known antibiotics against a representative panel of bacterial strains associated with acne was conducted. A broth dilution methodology was employed using guidelines established by National Committee for Clinical Laboratory Standards (NCCLS) for anaerobic organisms to establish an antibacterial profile for XMP.629. Assays to determine the minimal bactericidal concentrations (MBC) and minimal inhibitory concentration (MIC) were conducted for XMP.629 and other known antibiotics.
Inoculum from a representative panel of bacterial strains associated with acne, such as P. acnes, P. avidum, P. granulosum, and Staphylococcus epidermis was prepared by suspending approximately 5-10 isolated bacterial colonies in pre-reduced MicroScan® Inoculum Water (Dade Behring, Deerfield, Ill.), and growing the bacterial suspension to log phase (approximately 48 hrs). An inoculum of between 1-5×10^6/mL was achieved by adding 100 μL of the suspension to 25 mL Brain Heart Infusion Broth (BHI) (Anaerobe Systems, Morgan Hill, Calif.).
A stock solution of XMP.629 dissolved in water at a concentration of 4.0 mg/mL was prepared. Dilute solutions of XMP.629 at concentrations ranging from about 1.25 to about 160 μg/mL were made in either water or formulation buffer (130 mM sodium chloride, 0.2% P103 (poloxamer 333), and 0.10% EDTA, pH 7.3).
Control tubes containing only water or formulation buffer were prepared for each isolate. Initial growth controls were determined by removing 10 μL from the water control tube and diluting it by 100 fold. From this dilution, 10 μL was used for inoculation and for spreading over the surface onto Laked Blood Agar (LBA) (Anaerobe Systems, Morgan Hill, Calif.) plates. The tubes and plates were incubated in an anaerobic atmosphere at 37° C. for 48 h.

[5] = tested on: P. acnes; test: microbe, parasite or virus in culture; settings: Cutibacterium acnes, clindamycin/erythromycin sensitive strain UP2022
[6] = tested on: P. acnes strain (ATCC 6919); settings: P. acnes ATCC 6919 passaged in the drug; level of the resistant culture sought/obtained
[7] = tested on: P. acnes; settings: strains UPC686 and UP2022; with XMP.629
[8] = tested on: Pseudomonas aeruginosa; test: microbe, parasite or virus in culture; settings: read-out: Minimum Inhibitory Concentrations, Pseudomonas aeruginosa 27853
[9] = tested on: Escherichia coli; test: microbe, parasite or virus in culture; assay type: cell-based; settings: Escherichia coli, Escherichia coli 0111:B4; read-out: Minimum Inhibitory Concentrations
Protocol: (§1) Acne vulgaris may involve a microbial consortium. Although P. acnes may be a prominent member of such a consortium, other uncharacterized bacteria may also participate. The microbial activity of XMP.629 as an acetate gel as described in Example 5 and other commonly used antibiotics was evaluated against a panel of human pathogens using standardized NCCLS protocols. […] Lesser potency was observed against the gram-negative organisms B. fragilis, B. cepacia, P. mirabilis and S. marcescens, which are often refractory to many antimicrobial compounds.

[10] = tested on: Serratia marcescens; test: microbe, parasite or virus in culture; assay type: cell-based; settings: Serratia marcescens 13880; read-out: Minimum Inhibitory Concentrations
Protocol: as §1

[11] = tested on: Klebsiella pneumoniae; test: microbe, parasite or virus in culture; assay type: cell-based; settings: Klebsiella pneumoniae, read-out: Minimum Inhibitory Concentrations
Protocol: as §1

[12] = tested on: Proteus mirabilis; test: microbe, parasite or virus in culture; assay type: cell-based; settings: Proteus mirabilis 29852; read-out: Minimum Inhibitory Concentrations
Protocol: as §1

[13] = tested on: S. aureus; test: Comparison of XMP.629 with standard topical agents (MIC90/MBC); assay type: cell-based, Staphylococcus aureus; settings: Staphylococcus aureus
Protocol: Control tubes containing only water or formulation buffer were prepared for each isolate. Initial growth controls were determined by removing 10 μL from the water control tube and diluting it by 100 fold. From this dilution, 10 μL was used for inoculation and for spreading over the surface onto Laked Blood Agar (LBA) (Anaerobe Systems, Morgan Hill, Calif.) plates. The tubes and plates were incubated in an anaerobic atmosphere at 37° C. for 48 h. […] MBC50 and 90 values represent where 50 and 90%, respectively, of the tested strain's MBC values are equal to or less than the indicated concentration.

[14] = tested on: hemizygous Tg.AC mice; test: Mouse dermal carcinogenicity study (TPA in XMP.629 acetate gel placebo); assay type: in vivo
Protocol: XMP.629 was evaluated in a dermal carcinogenicity study to determine whether repeated dermal treatment with tetradeconyl phorbol acetate (TPA) in a XMP.629 acetate gel placebo formulation increased the incidence of skin tumors in hemizygous Tg.AC mice. […] Group 1 was treated with XMP.629 acetate gel placebo alone. A sixth group (Group 2) was treated with TPA dissolved in acetone at a dose level of 1.25 μg per 150 μL application and served as a reference standard. The animals were dosed via dermal application three times per week (e.g., Monday, Wednesday and Friday) for 12 consecutive weeks.
All animals were observed twice daily for moribundity and mortality. A hands-on examination was performed weekly at the time the animals were weighed on Day 1 and weekly thereafter. At that time, the animals were examined for clinical evidence of toxicity, carcinogenicity, and/or irritation at the site of application. […] The number of tumors at the site of application (SOA) and non-site of application (non-SOA) was recorded for each animal each week. At the end of the study (Day 85), the surviving animals were euthanized with CO2 asphyxiation. A necropsy was not performed.

[15] = 10 mg/kg oral gavage
[16] = in vivo; settings: both, rat, plasma, po, 10 mg/kg, Bioavailability, 10 mg/kg oral gavage in distilled water
[17] = physchem
Protocol: In additional studies, a variety of formulations of XMP.629 were tested for stability under various temperatures, such as 25° C., 40° C., and 50° C., and at various time points, such as 0.5, 1, and 2 months.
The solubility of XMP.629 acetate in various solvents was also evaluated.
Solubility studies were conducted using a variety of solvent systems and/or skin penetration enhancers.

[18] = 0.3 mg/kg intravenous
[19] = rat, 0.3 mg/kg intravenous
Protocol: Whole body autoradiography studies measured the concentration of tritium in tissues at several time points following dosing. From these concentrations, area under the concentration vs. time curve (AUC) was calculated as a measure of overall exposure (see Table 25).

COc1c2occc2cc2ccc(=O)oc12 [8-MOP, 8-methoxypsoralen, reference compound]
phototoxicity [1]: produced skin reactions indicative of cutaneous phototoxicity

CC1(C)S[C@@H]2[C@H](NC(=O)[C@H](N)c3ccccc3)C(=O)N2[C@H]1C(=O)O [Ampicillin]
MBC (antibiotic alone) ([2]; E. coli 4104 LF): 32 µg/mL (≈ 91.6 µM) | MBC (antibiotic alone) ([3]; Staphylococcus aureus 342U-116): 8 µg/mL (≈ 22.9 µM)

CO/N=C(\C(=O)N[C@@H]1C(=O)N2C(C(=O)O)=C(COC(N)=O)CS[C@H]12)c1ccco1 [Cefuroxime]
MBC (antibiotic alone) ([2]; E. coli 4104 LF): 8 µg/mL (≈ 18.9 µM)

CC(=O)OCC1=C(C(=O)O)N2C(=O)[C@@H](NC(=O)Cc3cccs3)[C@H]2SC1 [Cephalothin]
MBC (antibiotic alone) ([3]; Staphylococcus aureus 342U-116): 1 µg/mL (≈ 2.52 µM)

CCC[C@@H]1C[C@@H](C(=O)N[C@@H]([C@H]2O[C@H](SC)[C@H](O)[C@@H](O)[C@H]2O)[C@H](C)Cl)N(C)C1 [Clindamycin]
MIC90 ([4]; read-out: MIC90 of Standard Topical Agents): 16 µg/mL (≈ 37.6 µM) | MIC ([4]; read-out: MIC of clindamycin resistant strains): > 64 µg/mL | MIC [5]: < 1 µg/mL | MIC/MBC [6]: >64 µg/mL | FIC [7]: 2

C[C@H]1c2cccc(O)c2C(=O)C2=C(O)[C@]3(O)C(=O)C(C(N)=O)=C(O)[C@@H](N(C)C)[C@@H]3[C@@H](O)[C@@H]21 [Doxycycline]
MIC [8]: 32 µg/mL (≈ 72 µM) | MIC [9]: 2 µg/mL (≈ 4.5 µM) | MIC [10]: 8 µg/mL (≈ 18 µM) | MIC ([11]; Klebsiella pneumoniae 19645): 32 µg/mL (≈ 72 µM) | MIC ([11]; Klebsiella pneumoniae 29011): 32 µg/mL (≈ 72 µM) | MIC [12]: 64 µg/mL (≈ 144 µM)

C/C(=C\C(=O)OCCCCCCCCC(=O)O)C[C@@H]1OC[C@H](C[C@@H]2O[C@H]2[C@@H](C)[C@H](C)O)[C@@H](O)[C@H]1O [Mupirocin]
MIC90 [13]: 4 µg/mL (≈ 7.99 µM)

CC1COc2c(N3CCN(C)CC3)c(F)cc3c(=O)c(C(=O)O)cn1c23 (stereo not drawn) [Ofloxacin]
MBC (antibiotic alone) ([2]; E. coli 4104 LF): ≦0.125 μg/mL | MBC (antibiotic alone) ([3]; Staphylococcus aureus 342U-116): 1 µg/mL (≈ 2.77 µM)

CCCCCCCCCCCCCC(=O)O[C@@H]1[C@@H](C)[C@@]2(O)[C@@H](C=C(CO)C[C@]3(O)C(=O)C(C)=C[C@@H]23)[C@@H]2C(C)(C)[C@]12OC(C)=O [TPA, tetradeconyl phorbol acetate]
tumor development ([14]; 10 μg TPA per application, a single female): one latent and one actual papilloma | tumor development, females ([14]; 20 μg TPA per application): 4/4 | tumor development, males ([14]; 20 μg TPA per application): 2/5 | tumor development ([14]; 2.5 and 5.0 μg per application in XMP.629 acetate gel placebo): did not result in tumor development

CC(C)C[C@@H](NC(=O)[C@H](N)CCCCN)C(=O)N[C@H](Cc1ccccc1)C(=O)N[C@H](CCCNC(=N)N)C(=O)N[C@H](Cc1cccc2ccccc12)C(=O)N[C@H](CCC(N)=O)C(=O)N[C@H](C)C(=O)N[C@H](CCCCN)C(=O)N[C@H](Cc1cccc2ccccc12)C(N)=O [XMP.629 acetate] (H-[dK][dL][dF][dR][d1Nal][dQ][dA][dK][d1Nal]-NH2)
Bioavailability, 5% glucose formulation versus distilled water [15]: ~4 fold | peak concentrations, 5% glucose formulation versus distilled water [15]: ~4 fold | time of peak concentrations following dosing [15]: 10 to 20 min | bioavailability [16]: ~0.001% | solubility ([17]; ethanol, 200 proof): < 2200 µg/mL | solubility ([17]; propylene glycol): 10600 to 12500 µg/mL | solubility ([17]; purified water): < 1660 µg/mL | solubility ([17]; sodium acetate buffer, pH 6): > 1640 µg/mL | solubility ([17]; transcutol P): < 170 µg/mL

CC(C)C[C@@H](NC(=O)[C@H](N)CCCCN)C(=O)N[C@H](Cc1ccccc1)C(=O)N[C@H](CCCNC(=N)N)C(=O)N[C@H](Cc1cccc2ccccc12)C(=O)N[C@H](CCC(N)=O)C(=O)N[C@H](C)C(=O)N[C@H](CCCCN)C(=O)N[C@H](Cc1cccc2ccccc12)C(N)=O [[^3H]-labeled XMP.629] (H-[dK][dL][dF][dR][d1Nal][dQ][dA][dK][d1Nal]-NH2)
Central compartment volume of distribution [18]: ~0.12 L/kg | alpha half-life [18]: ~2 min | beta half-life [18]: ~45 min | clearance [18]: ~6 mL/min/kg | plasma concentrations by 24 hours following dosing [18]: approximately 0.005 μg/mL | terminal half-life [18]: ~480 min | average half-life ([18]; three compartment model): approximately 0.24 hours | AUC0-tlast ([19]; Adrenal): 64.98 μg equivalents * hr/g | AUC0-tlast ([19]; Blood): 0.24 μg equivalents * hr/g | AUC0-tlast ([19]; Bone marrow): 82.65 μg equivalents * hr/g | AUC0-tlast ([19]; Cervical lymph node): 86.07 μg equivalents * hr/g | AUC0-tlast ([19]; Eye uveal tract): 1.14 μg equivalents * hr/g | AUC0-tlast ([19]; Kidney): 20.20 μg equivalents * hr/g | AUC0-tlast ([19]; Liver): 191.86 μg equivalents * hr/g | AUC0-tlast ([19]; Lung): 29.25 μg equivalents * hr/g | AUC0-tlast ([19]; Popliteal lymph node): 165.30 μg equivalents * hr/g | AUC0-tlast ([19]; Renal medulla high): 19.83 μg equivalents * hr/g | AUC0-tlast ([19]; Spleen): 60.94 μg equivalents * hr/g | AUC0-tlast ([19]; Thyroid): 23.38 μg equivalents * hr/g

Neomycin
MBC (antibiotic alone) ([2]; E. coli 4104 LF): 1 µg/mL | MBC (antibiotic alone) ([3]; Staphylococcus aureus 342U-116): 1 µg/mL

Penicillin
MBC ([2]; E. coli 706U2-1081): >10 µg/mL | MBC ([2]; E. coli 4104 LF): >10 µg/mL | MBC ([3]; Staphylococcus aureus 076U-550): <0.06 µg/mL | MBC ([3]; Staphylococcus aureus 230U-579): >10 µg/mL | MBC ([3]; Staphylococcus aureus 314U-148): >10 µg/mL | MBC ([3]; Staphylococcus aureus 342U-116): >10 µg/mL | MBC ([3]; Staphylococcus aureus 15031-1857): >10 µg/mL
